Where a SMILES comes first, the peptide text is derived from it. The star is where a group is joined. Cbz = O=C(OCc1ccccc1)*
Legend:
MYC ubiquitination = assay: UBE3B-mediated MYC ubiquitination in HEK 293T cells with GSK3 inhibitor; assay type: cell-based; settings: GSK3 inhibitor 10 µM for 12 hr, Co-IP, result in words
Method: HEK 293T cells were cotransfected with Myc-tagged MYC, HA-tagged or Flag-tagged ubiquitin, and other indicated plasmids. Cells were pretreated for 6 h with MG132 (Sigma Aldrich, C2211) at a concentration of 20 μM, and cell extracts were prepared using lysis buffer containing 1% TX-100 supplemented with 1 mg/ml iodoacetamide. We used a monoclonal anti-HA Affinity Gel (Bimake.com, B23302) or a ubiquitin antibody (CST, #3933S, 5 μg/IP) to purify ubiquitinylated proteins. Precipitates were analyzed by immunoblot with an anti-MYC antibody (CST, #9402 S, 1:1000).
Suppleme n t a ry F i g ur e 4 . U B E3 B I n d uc e d MYC Ubiquitina tion a t Lys ine 4 27 . Re la te d to Fig. 3 . […]
(d) The direct interaction of UBE3B and MYC in the purified system. […] HEK 293T cells were transfected with th e indicated mutants of MYC, and the ubiquitination of MYC was detected by Co -IP assays. […] HEK 293T cells were transfected with the indicated mutants of MYC, and the ubiquitination of MYC was detected by Co-IP assays. […] HEK 293T cells were transfected with the indicated mutants of MYC, and the degradation of MYC was detected by western blotting. […]
Raji cells were transfected with the indicated siRNAs and plasmids, and the ubiquitination of MYC was detected by Co-IP assays. […] Th e MY C protein was detected by Western blot analysis with GAPDH as a loading control. […] The MYC ubiquitination was detected by Co-IP assays . […]

TRIB3 and MYC = assay: SPR kinetic interaction of TRIB3 and MYC proteins with or without CM4; assay type: binding; settings: in vitro, result in words
Method: (§1) Binding kinetics between MYC and UBE3B, TRIB3 and the indicated α helical peptides, MAX and the indicated α helical peptides, or MYC and MAX were analyzed using a BIAcore T200 instrument (GE Healthcare, CA, USA) as described previously. Briefly, binding reactions were performed in HBS-EP buffer (GE Healthcare) at pH 7.4. TRIB3/MYC/MAX protein was coated on the flow cell of a CM5 sensor chip by direct immobilization. Another flow cell, not coated with an immobilized protein, was used to evaluate nonspecific binding. The binding analyses were performed at a flow rate of 25 μl/min at 25 °C. A total of 0–200 nM peptide or 0–500 nM TRIB3 protein was passed over the surface of the sensor chip. The association rate constant (Ka) and the dissociation rate constant (Kd) were calculated according to the BIA evaluation software. The dissociation constant (KD) was determined by Kd/Ka.

TRIB3 protein = target: T1, TRIB3 protein (Homo sapiens, UniProt Q96RU7); assay: SPR kinetic interaction of α-helical peptides (CM1-CM4) with TRIB3; assay type: binding; settings: result in words
T1 construct: GST; purchased Sinobiological Inc. 10731-H09B
T1 sequence (Q96RU7 1-358): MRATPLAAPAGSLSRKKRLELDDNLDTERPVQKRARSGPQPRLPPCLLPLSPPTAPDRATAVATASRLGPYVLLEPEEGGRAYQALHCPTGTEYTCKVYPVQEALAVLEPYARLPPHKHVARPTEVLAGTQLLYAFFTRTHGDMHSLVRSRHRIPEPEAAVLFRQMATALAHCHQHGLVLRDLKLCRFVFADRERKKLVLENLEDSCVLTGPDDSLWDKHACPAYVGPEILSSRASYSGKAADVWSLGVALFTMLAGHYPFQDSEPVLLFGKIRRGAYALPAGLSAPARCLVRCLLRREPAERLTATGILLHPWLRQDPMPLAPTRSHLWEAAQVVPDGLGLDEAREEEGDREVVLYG
Method: as §1

MAX protein = assay: SPR kinetic interaction of α-helical peptides (CM1-CM4) with MAX; assay type: binding; settings: result in words
Method: as §1

MAX and MYC = assay: SPR kinetic interaction of MAX and MYC proteins with indicated peptides (CM1-CM4); assay type: binding; settings: result in words
Method: as §1

[1] = tested on: MYC protein in Raji cells; assay: MYC degradation in control or TRIB3-deleted Raji cells with CHX or CHX plus MG132; assay type: cell-based, human; settings: result in words
Method: Co-IP experiments were performed as described previously. Briefly, cells were collected and lysed for 30 min on ice. Soluble lysates were incubated with the indicated antibodies at 4 °C overnight, followed by incubation with Protein A/G Plus-Agarose (Santa Cruz Biotechnology, TX, USA) at 4 °C for 2 h. Soluble lysates were incubated with the indicated Anti-Myc magnetic beads (Bimake.com, B26302), Anti-Flag Affinity Gel (Bimake.com, B23102) or Anti-HA Affinity Gel (Bimake.com, B23302) at 4 °C overnight. Immunocomplexes were separated from the beads and then boiled for 10 min. The precipitated proteins were subjected to SDS-PAGE and blotted with specific antibodies. For immunoblotting assays, proteins were extracted from cells, spleens, or lymphoma tissues using RIPA buffer (Cell Signaling Technology, MA, USA). A BCA Protein Assay Kit was used to determine protein concentrations. Protein extracts were separated by SDS-PAGE, transferred onto PVDF membranes, and subjected to immunoblot analysis. Western blot images were captured by a Tanon 5200 chemiluminescent imaging system (Tanon, Shanghai, […]). Human lymphoma and benign LN paraffin tissue microarrays were purchased from US Biomax (LM482a).

[2] = tested on: Myc^EμCre^ERT2Trib3^F/+ mice; assay: Survival of Myc^EμCre^ERT2Trib3^F/+ mice treated with vehicle or tamoxifen (induced Trib3 deletion); assay type: in vivo, mouse
Source text: NOD-scid IL2Rg^null (NSG) mice (4–6 weeks old, male) were purchased from the Nanjing Biomedical Research Institute of Nanjing University (Nanjing, China). Trib3-knockout (Trib3^loxP/loxP, Trib3^F/F) mice (5–6 weeks old, male) were generated as described in our previous study (Li et al.[18]). Cre^ERT2 (B6. Cg-Tg(CAG-cre/Esr1*)5Amc/J) mice (5–6 weeks old, 1 male and 2 females) (The Jackson Laboratory, 004682) were obtained from The Jackson Laboratory (CA, USA). When Cre^ERT2 transgenic mice bred with mice containing loxP-flanked sequences, tamoxifen-inducible Cre-mediated recombination results in deletion of the floxed sequences in widespread cells/tissues of the offspring. Cre^Lck (B6. Cg-Tg(Lck-cre)548Jxm/J) mice (5–6 weeks old, 1 male and 2 females; The Jackson Laboratory, 003802), and Cre^CD19 (B6.129P2(C)-Cd19tm1(cre)Cgn/J) mice (5–6 weeks old, 1 male and 2 females; The Jackson Laboratory, 006785) were obtained from the Shanghai Research Center for Model Organisms (Shanghai, China). B6.129P2-Lyz2tm1(cre)/Nju (LysM-Cre) mice(5–6 weeks old, 1 male and 2 females; N000056) were obtained from Model Animal Resource Information Platform. […] Deletion of Trib3 was corroborated by quantitative PCR and immunoblot analysis. […]

Row | effect on the binding of MYC and MAX (MAX and MYC) | Molecule | binding affinity for TRIB3 (TRIB3 protein) | ability to bind MAX (MAX protein) | further results
1 | not | KVVILKKATAYILSV [CM2, α-helical peptide derived from C terminus of MYC] | only CM4 displayed a high binding affinity | not | –
2 | decreased the binding of MYC and MAX | ERQRRNELKRSFFALR [CM1, α-helical peptide derived from C terminus (HLH domain) of MYC] | only CM4 displayed a high binding affinity | showed a high ability to bind MAX | –

The remaining lines, values behind:

Row | Molecule | effect on the binding of MYC and MAX (MAX and MYC) | binding affinity for TRIB3 (TRIB3 protein) | ability to bind MAX (MAX protein) | further results
3 | Cc1c[nH]c(-c2cnc(NCCNc3ccc(C#N)cn3)nc2-c2ccc(Cl)cc2Cl)n1 [CT99021] | – | – | – | UBE3B-mediated MYC ubiquitination (MYC ubiquitination): decreased
4 | LRKERQRLEKQLHK [scramble peptide of CM4, reference compound] | – | – | – | effect on the binding affinity of TRIB3 and MYC (TRIB3 and MYC): not
5 | QAEEQKLISEEDLLR [CM3, α-helical peptide derived from C terminus of MYC] | not | only CM4 displayed a high binding affinity | not | –
6 | CC(C)C[C@@H](C=O)NC(=O)[C@H](CC(C)C)NC(=O)[C@H](CC(C)C)NC(=O)OCc1ccccc1 [MG132] (Cbz-Leu-Leu-Leu-aldehyde) | – | – | – | effect on the shortened MYC half-life induced by TRIB3 knockdown [1]: reversed
7 | CC/C(=C(\c1ccccc1)c1ccc(OCCN(C)C)cc1)c1ccccc1 [Tamoxifen, tamoxifen] | – | – | – | survival of lymphoma mice ([2]; tamoxifen 250 mg/kg i.p. (induces Trib3 deletion), result in words): none of the tamoxifen-treated Myc^Eμ Cre^ERT2Trib3^F/+ mice died within 180 days; Survival status at day 180 (0: alive, 1: dead) ([2]; tamoxifen 250 mg/kg, status of individual mice at Day 180, Fig 1k source data): 0

From publication PMC7725785, “TRIB3 promotes MYC-associated lymphoma development through suppression of UBE3B-mediated MYC degradation” (Nature Communications, 2020)
